Data published in PubChem BioAssay (NCI).
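Each compound was tested at five concentrations against cells in 96-well plates for 48 hours. Abbreviation: GI50, concentration required for 50% inhibition of growth. TGI denotes the concentration required for complete inhibition of growth.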

Legend:
Assay in all cases: NCI-60 cell line screen, 48 h
T-47D breast = tested on: T-47D breast
UO-31 renal = tested on: UO-31 renal
U251 CNS = tested on: U251 CNS
HOP-62 NSCLC = tested on: HOP-62 NSCLC
IGROV1 ovarian = tested on: IGROV1 ovarian
MDA-MB-231 breast = tested on: MDA-MB-231 breast
MCF7 breast = tested on: MCF7 breast
UACC-62 melanoma = tested on: UACC-62 melanoma
A549 NSCLC = tested on: A549 NSCLC
MOLT-4 leukemia = tested on: MOLT-4 leukemia
HCT-116 colon = tested on: HCT-116 colon
EKVX NSCLC = tested on: EKVX NSCLC
K-562 leukemia = tested on: K-562 leukemia
CCRF-CEM leukemia = tested on: CCRF-CEM leukemia
PC-3 prostate = tested on: PC-3 prostate
OVCAR-5 ovarian = tested on: OVCAR-5 ovarian
NCI-H226 lung = tested on: NCI-H226 lung
SK-OV-3 ovarian = tested on: SK-OV-3 ovarian
SR leukemia = tested on: SR leukemia
NCI-H460 lung = tested on: NCI-H460 lung
SK-MEL-5 melanoma = tested on: SK-MEL-5 melanoma
SF-268 CNS = tested on: SF-268 CNS
MALME-3M melanoma = tested on: MALME-3M melanoma
SF-295 CNS = tested on: SF-295 CNS
BT-549 breast = tested on: BT-549 breast
HCC-2998 colon = tested on: HCC-2998 colon
NCI-H23 lung = tested on: NCI-H23 lung
A498 renal = tested on: A498 renal
HT29 colon = tested on: HT29 colon
ACHN renal = tested on: ACHN renal
SN12C renal = tested on: SN12C renal
SNB-75 CNS = tested on: SNB-75 CNS
KM12 colon = tested on: KM12 colon
SNB-19 CNS = tested on: SNB-19 CNS
HOP-92 NSCLC = tested on: HOP-92 NSCLC
HS 578T breast = tested on: HS 578T breast
UACC-257 melanoma = tested on: UACC-257 melanoma
OVCAR-8 ovarian = tested on: OVCAR-8 ovarian
786-0 renal = tested on: 786-0 renal
SK-MEL-28 melanoma = tested on: SK-MEL-28 melanoma
COLO 205 colon = tested on: COLO 205 colon
RXF 393 renal = tested on: RXF 393 renal
MDA-MB-435 = tested on: MDA-MB-435
HCT-15 colon = tested on: HCT-15 colon
HL-60(TB) leukemia = tested on: HL-60(TB) leukemia
SF-539 CNS = tested on: SF-539 CNS
TK-10 renal = tested on: TK-10 renal
NCI-H522 lung = tested on: NCI-H522 lung
M14 melanoma = tested on: M14 melanoma
SK-MEL-2 melanoma = tested on: SK-MEL-2 melanoma
DU-145 prostate = tested on: DU-145 prostate
RPMI-8226 leukemia = tested on: RPMI-8226 leukemia
LOX IMVI melanoma = tested on: LOX IMVI melanoma
CAKI-1 renal = tested on: CAKI-1 renal
MDA-MB-468 breast = tested on: MDA-MB-468 breast
OVCAR-4 ovarian = tested on: OVCAR-4 ovarian
SW-620 colon = tested on: SW-620 colon
OVCAR-3 ovarian = tested on: OVCAR-3 ovarian

In the case of `O=C1Nc2ccc(F)cc2/C1=C/c1cccc(OCc2ccccc2)c1`, the GI50 (T-47D breast) is reported as 12.1 µM, the TGI (T-47D breast) is reported as 62 µM and the GI50 (UO-31 renal) is reported as 10 µM. For the same compound, the TGI (UO-31 renal) was 21.7 µM, the GI50 (U251 CNS) was 12.6 µM and the TGI (U251 CNS) was 32.6 µM. For the same compound, the GI50 (HOP-62 NSCLC) was 16.2 µM, the TGI (HOP-62 NSCLC) was 37.1 µM and the GI50 (IGROV1 ovarian) was 13.4 µM. It also gave a TGI (IGROV1 ovarian) of 27.1 µM, a GI50 (MDA-MB-231 breast) of 13.8 µM and a TGI (MDA-MB-231 breast) of 29.2 µM. The GI50 (MCF7 breast) was 5.44 µM, the TGI (MCF7 breast) was 21.8 µM and the GI50 (UACC-62 melanoma) was 10.4 µM. It also gave a TGI (UACC-62 melanoma) of 22.5 µM, a GI50 (A549 NSCLC) of 18.6 µM and a TGI (A549 NSCLC) of 75 µM. For the same compound, the GI50 (MOLT-4 leukemia) was 6.85 µM, the TGI (MOLT-4 leukemia) was 30.2 µM and the GI50 (HCT-116 colon) was 10.5 µM. The TGI (HCT-116 colon) was 25.9 µM, the GI50 (EKVX NSCLC) was 12.8 µM and the TGI (EKVX NSCLC) was 27.8 µM. The GI50 (K-562 leukemia) was 10.5 µM, the TGI (K-562 leukemia) was 31.8 µM and the GI50 (CCRF-CEM leukemia) was 12.4 µM. It also gave a TGI (CCRF-CEM leukemia) of 35.2 µM, a GI50 (PC-3 prostate) of 13.8 µM and a TGI (PC-3 prostate) of 30.3 µM. It also gave a GI50 (OVCAR-5 ovarian) of 16.5 µM, a TGI (OVCAR-5 ovarian) of 30.6 µM and a GI50 (NCI-H226 lung) of 12.5 µM. For the same compound, the TGI (NCI-H226 lung) was 27.1 µM, the GI50 (SK-OV-3 ovarian) was 16.7 µM and the TGI (SK-OV-3 ovarian) was 39.4 µM. It also gave a GI50 (SR leukemia) of 4.83 µM, a TGI (SR leukemia) of 23.1 µM and a GI50 (NCI-H460 lung) of 14.1 µM. The TGI (NCI-H460 lung) was 28.7 µM, the GI50 (SK-MEL-5 melanoma) was 15.8 µM and the TGI (SK-MEL-5 melanoma) was 29.8 µM. For the same compound, the GI50 (SF-268 CNS) was 14 µM, the TGI (SF-268 CNS) was 34.2 µM and the GI50 (MALME-3M melanoma) was 15.5 µM. It also gave a TGI (MALME-3M melanoma) of 29 µM, a GI50 (SF-295 CNS) of 15.2 µM and a TGI (SF-295 CNS) of 34.2 µM. For the same compound, the GI50 (BT-549 breast) was 10.5 µM, the TGI (BT-549 breast) was 23.4 µM and the GI50 (HCC-2998 colon) was 16.3 µM. For the same compound, the TGI (HCC-2998 colon) was 31.7 µM, the GI50 (NCI-H23 lung) was 11.7 µM and the TGI (NCI-H23 lung) was 27.5 µM. The GI50 (A498 renal) was 29.7 µM, the TGI (A498 renal) was > 100 µM and the GI50 (HT29 colon) was 17.8 µM. The TGI (HT29 colon) was 35.4 µM, the GI50 (ACHN renal) was 13.5 µM and the TGI (ACHN renal) was 26.5 µM. It also gave a GI50 (SN12C renal) of 13.4 µM, a TGI (SN12C renal) of 26.8 µM and a GI50 (SNB-75 CNS) of 14.7 µM. It also gave a TGI (SNB-75 CNS) of 43.3 µM, a GI50 (KM12 colon) of 13.7 µM and a TGI (KM12 colon) of 32.4 µM. The GI50 (SNB-19 CNS) was 14.2 µM, the TGI (SNB-19 CNS) was 29.2 µM and the GI50 (HOP-92 NSCLC) was 3.76 µM. For the same compound, the TGI (HOP-92 NSCLC) was 17.1 µM, the GI50 (HS 578T breast) was 15.4 µM and the TGI (HS 578T breast) was 57.9 µM. The GI50 (UACC-257 melanoma) was 16.8 µM, the TGI (UACC-257 melanoma) was 36.2 µM and the GI50 (OVCAR-8 ovarian) was 20.1 µM. The TGI (OVCAR-8 ovarian) was 57.8 µM, the GI50 (786-0 renal) was 14.5 µM and the TGI (786-0 renal) was 29.5 µM. For the same compound, the GI50 (SK-MEL-28 melanoma) was 16 µM, the TGI (SK-MEL-28 melanoma) was 30.1 µM and the GI50 (COLO 205 colon) was 17.8 µM. For the same compound, the TGI (COLO 205 colon) was 35.5 µM, the GI50 (RXF 393 renal) was 13.7 µM and the TGI (RXF 393 renal) was 29.8 µM. The GI50 (MDA-MB-435) was 15.1 µM, the TGI (MDA-MB-435) was 29 µM and the GI50 (HCT-15 colon) was 11.9 µM. For the same compound, the TGI (HCT-15 colon) was 29.3 µM, the GI50 (HL-60(TB) leukemia) was 11.7 µM and the TGI (HL-60(TB) leukemia) was 34.1 µM. It also gave a GI50 (SF-539 CNS) of 14.8 µM, a TGI (SF-539 CNS) of 28.1 µM and a GI50 (TK-10 renal) of 19.6 µM. For the same compound, the TGI (TK-10 renal) was 41.9 µM, the GI50 (NCI-H522 lung) was 12.4 µM and the TGI (NCI-H522 lung) was 27.3 µM. The GI50 (M14 melanoma) was 14.9 µM, the TGI (M14 melanoma) was 31.5 µM and the GI50 (SK-MEL-2 melanoma) was 12.9 µM. The TGI (SK-MEL-2 melanoma) was 27.8 µM, the GI50 (DU-145 prostate) was 14.8 µM and the TGI (DU-145 prostate) was 31.4 µM. It also gave a GI50 (RPMI-8226 leukemia) of 10.7 µM, a TGI (RPMI-8226 leukemia) of 30.7 µM and a GI50 (LOX IMVI melanoma) of 8.51 µM. For the same compound, the TGI (LOX IMVI melanoma) was 28.7 µM, the GI50 (CAKI-1 renal) was 8.46 µM and the TGI (CAKI-1 renal) was 21.7 µM. The GI50 (MDA-MB-468 breast) was 10.8 µM, the TGI (MDA-MB-468 breast) was 23.6 µM and the GI50 (OVCAR-4 ovarian) was 9.89 µM. For the same compound, the TGI (OVCAR-4 ovarian) was 30.2 µM, the GI50 (SW-620 colon) was 15.1 µM and the TGI (SW-620 colon) was 29.4 µM. The GI50 (OVCAR-3 ovarian) was 11.8 µM and the TGI (OVCAR-3 ovarian) was 24.7 µM.
